Read-outs that look alike come from different tables or passages of the source.

One series relates to Neutrophils. Kind of series: Human primary leucocyte viability: neutrophils. The note with it: 3 μM, 24 hours. Format: cell-based. As for the experimental part: (§1) The effects of the reference compound (ABD735) on the viability of neutrophils, monocytes, CD4+ and CD8+ T-cells and B-lymphocytes was assessed under both resting and stimulated conditions. Resting conditions were used to assess likely effects on normal cells found in human blood, and stimulated conditions were used to assess the effects of the compound under disease conditions.
(§2) Effects on cell viability were assessed using flow cytometry. Flow cytometry is a laser-based, biophysical technology employed in cell counting, cell sorting, and biomarker detection, by suspending cells in a stream of fluid and passing them by an electronic detection apparatus. It allows simultaneous multi-parametric analysis of the physical and chemical characteristics of up to thousands of particles per second. The sorting of cells using flow cytometry requires the use of specific cell markers. To quantify cell numbers, counting beads are used as an internal standard. […] In addition, for B- and T-lymphocytes, cell proliferation was measured using a dye known as Cell Proliferation Dye (eFluor® 450). eFluor® 450 is an organic dye which can be conjugated to cell-specific markers. […]
(§3) The average results (n=3) for the reference compound (ABD735) were expressed as a fold change versus the average control value. […]

The next series deals with CD4+ T-lymphocytes. Description: Human primary leucocyte viability: CD4+ T-lymphocytes. Format: cell-based. As to conditions: 3 μM, 48 hours. As for the experimental part: as §1, §2, §3
In series [1] the test system is CD8+ T-lymphocytes. Kind of series: Human primary leucocyte viability: CD8+ T-lymphocytes. The series is classed as cell-based. The note with it: 3 μM, 48 hours. As for the experimental part:
as §1, §2, §3

The next series concerns Monocytes. Kind of series: Human primary leucocyte viability: monocytes. The series is classed as cell-based. As to conditions: 3 μM, 48 hours. As for the experimental part: as §1
Effects on cell viability were assessed using flow cytometry. Flow cytometry is a laser-based, biophysical technology employed in cell counting, cell sorting, and biomarker detection, by suspending cells in a stream of fluid and passing them by an electronic detection apparatus. It allows simultaneous multi-parametric analysis of the physical and chemical characteristics of up to thousands of particles per second. The sorting of cells using flow cytometry requires the use of specific cell markers. To quantify cell numbers, counting beads are used as an internal standard. Counting beads are a calibrated suspension of microbeads which are added to a known volume of sample so the sample volume per bead is known. This allows the absolute determination of cell number in a sample. In addition, for B- and T-lymphocytes, cell proliferation was measured using a dye known as Cell Proliferation Dye (eFluor® 450). eFluor® 450 is an organic dye which can be conjugated to cell-specific markers. It fluoresces when excited by a laser in a manner proportional to the number of cells bound by the conjugate. Its signal therefore provides an indication of the proliferation of specific cell types.
PBMCs (peripheral blood mononuclear cells) were collected from healthy donors (all male) and isolated by centrifugation on a layer of Ficoll Paque (GE Healthcare, UK). Cells were then resuspended (3×10^6 cells/mL) in RPMI supplemented with 10% FCS and antibiotics (penicillin 100 U/mL, streptomycin 100 μg/mL) and 1 mL of cell suspension was added to a 48-well plate, which was then incubated for 1 hour at 37° C./5% CO2. Subsequently, the supernatant was aspirated to remove non-adherent cells, which was followed by two washing steps to ensure removal of non-adhered cells. Adhered cells (monocytes) were then stimulated with either LPS (10 ng/mL), TNFα (10 ng/mL) or macrophage colony stimulating factor (M-CSF) (10 ng/mL) in the absence (control) or presence of reference compound (ABD735) (at 30, 10, 3, 1, or 0.3 μM) for 48 hours at 37° C./5% CO2. Subsequently, the plates were centrifuged and the monocytes washed in PBS before addition of PBS plus EDTA (10 mM) and incubation at 4° C. for 20 minutes to help detach the cells, which was facilitated by pipetting. […]
as §3

The test system of series [2] is CD8+ T-lymphocytes. Kind of series: Human primary leucocyte proliferation: CD8+ T-lymphocytes. Format: cell-based. As to conditions: 3 μM, 5 days. As for the experimental part:
as §2, with “standard. Counting beads are a calibrated suspension of microbeads which are added to a known volume of sample so the sample volume per bead is known.” for “standard.”
PBMCs (peripheral blood mononuclear cells) were collected from healthy donors (all female) and isolated by centrifugation on a layer of Ficoll Paque (GE Healthcare, UK). […] Following incubation, the cells were stained with either anti-human CD8 or CD4 before being analysed on a flow cytometer. […]
as §3

The nature of series [3]: Maximum Tolerated Dose, Han Wistar rats. As to conditions: rat, in vivo, oral. As for the experimental part: The acute safety of the compounds was assessed in rats in order to enable determination of the maximum tolerated dose (MTD), an indication of a compound's safety in animals. The higher the MTD, the greater is the potential safety of the compound being tested.
At the completion of the study, the results were expressed as the maximum tolerated dose for each compound, this being the highest of each without unacceptable toxicity.
The maximum dose without unacceptable side-effects was determined to be the MTD (expressed in mg/kg).

In the case of `Cc1cc(S(=O)(=O)N[C@H]2CC[C@H](O)CC2)ccc1-c1ccc(F)cc1F` [ABD735], the “Fold change in viability” value with Neutrophils (Dexamethasone) is 0.8; in the series on Neutrophils (no stimulation), 1.0; with CD4+ T-lymphocytes (no stimulation), 0.9; with CD4+ T-lymphocytes (phytohaemagglutinin), 0.6; with CD8+ T-lymphocytes [1] (no stimulation), 0.8; with CD8+ T-lymphocytes [1] (phytohaemagglutinin), 0.7. Also, the “Fold change in viability” value in the series with Monocytes (LPS) turned out to be 1.0; in the series on Monocytes (M-CSF), 1.1; with Monocytes (TNFα) it was 0.5; with Monocytes (no stimulation) it was 0.7. The “Fold change in proliferation” value in the series on CD8+ T-lymphocytes [2] (no stimulation) was found to be 0.7; in the series with CD8+ T-lymphocytes [2] (phytohaemagglutinin), 0.3.

As to `C[C@]1(O)CC[C@H](NS(=O)(=O)c2ccc(-c3ccc(Cl)cc3C#N)cc2)CC1` [HMC-C-01-A, 4′-Chloro-2′-cyano-N-((1r,4r)-4-hydroxy-4-methylcyclohexyl)biphenyl-4-sulfonamide], the MTD is greater than 500 mg/kg in series [3] (female Han Wistar rats, read-out: Maximum tolerated dose, Females) and greater than 500 mg/kg in series [3] (male Han Wistar rats, read-out: Maximum tolerated dose, Males).

The record behind these values is patent US9624167B2, “N-(4-hydroxy-4-methyl-cyclohexyl)-4-phenyl-benzenesulfonamides and N-(4-hydroxy-4-methyl-cyclohexyl)-4-(2-pyridyl)benzenesulfonamides and their therapeutic use” (PIMCO 2664 LIMITED, priority 2013, dated 2017).
